Experimental data taken from ChEMBL document CHEMBL2413076, “Synthesis and biological evaluation of ursolic acid-triazolyl derivatives as potential anti-cancer agents” (Eur J Med Chem, 2013).

Experiments:
HCT-116 [1] = experiment: Growth inhibition of human HCT116 cells assessed as dead cells at 20 uM after 48 hrs by sulforhodamine-B assay relative to control; format: functional; conditions: HCT-116, 48 h, read-out: GI
A549 [2] = experiment: Growth inhibition of human A549 cells assessed as dead cells at 20 uM after 48 hrs by sulforhodamine-B assay relative to control; format: functional; conditions: A549, 48 h, read-out: GI
THP-1 [3] = experiment: Growth inhibition of human THP1 cells assessed as dead cells at 20 uM after 48 hrs by sulforhodamine-B assay relative to control; format: functional; conditions: THP-1, 48 h, read-out: GI
[4] = Growth inhibition of human FR2 cells after 48 hrs by sulforhodamine-B assay; format: cell-based; conditions: FR2, 48 h
THP-1 [5] = experiment: Growth inhibition of human THP1 cells assessed as dead cells at 50 uM after 48 hrs by sulforhodamine-B assay relative to control; format: functional; conditions: THP-1, 48 h, read-out: GI
A549 [6] = experiment: Growth inhibition of human A549 cells after 48 hrs by sulforhodamine-B assay; format: functional, cell-based; conditions: A549, 48 h
THP-1 [7] = experiment: Growth inhibition of human THP1 cells assessed as dead cells at 10 uM after 48 hrs by sulforhodamine-B assay relative to control; format: functional; conditions: THP-1, 48 h, read-out: GI
HCT-116 [8] = experiment: Growth inhibition of human HCT116 cells assessed as dead cells at 50 uM after 48 hrs by sulforhodamine-B assay relative to control; format: functional; conditions: HCT-116, 48 h, read-out: GI
A549 [9] = experiment: Growth inhibition of human A549 cells assessed as dead cells at 10 uM after 48 hrs by sulforhodamine-B assay relative to control; format: functional; conditions: A549, 48 h, read-out: GI
THP-1 [10] = experiment: Growth inhibition of human THP1 cells after 48 hrs by sulforhodamine-B assay; format: functional, cell-based; conditions: THP-1, 48 h
MCF7 [11] = experiment: Growth inhibition of human MCF7 cells after 48 hrs by sulforhodamine-B assay; format: functional, cell-based; conditions: MCF7, 48 h
HCT-116 [12] = experiment: Growth inhibition of human HCT116 cells after 48 hrs by sulforhodamine-B assay; format: functional, cell-based; conditions: HCT-116, 48 h
[13] = Growth inhibition of human FR2 cells assessed as dead cells at 10 uM after 48 hrs by sulforhodamine-B assay relative to control; format: cell-based; conditions: read-out: GI
[14] = Growth inhibition of human FR2 cells assessed as dead cells at 50 uM after 48 hrs by sulforhodamine-B assay relative to control; format: cell-based; conditions: read-out: GI
MCF7 [15] = experiment: Growth inhibition of human MCF7 cells assessed as dead cells at 10 uM after 48 hrs by sulforhodamine-B assay relative to control; format: functional; conditions: MCF7, 48 h, read-out: GI
MCF7 [16] = experiment: Growth inhibition of human MCF7 cells assessed as dead cells at 50 uM after 48 hrs by sulforhodamine-B assay relative to control; format: functional; conditions: MCF7, 48 h, read-out: GI
HCT-116 [17] = experiment: Growth inhibition of human HCT116 cells assessed as dead cells at 10 uM after 48 hrs by sulforhodamine-B assay relative to control; format: functional; conditions: HCT-116, 48 h, read-out: GI
A549 [18] = experiment: Growth inhibition of human A549 cells assessed as dead cells at 50 uM after 48 hrs by sulforhodamine-B assay relative to control; format: functional; conditions: A549, 48 h, read-out: GI
A549 [19] = experiment: Growth inhibition of human A549 cells assessed as dead cells at 1 uM after 48 hrs by sulforhodamine-B assay relative to control; format: functional; conditions: A549, 48 h, read-out: GI
MCF7 [20] = experiment: Growth inhibition of human MCF7 cells assessed as dead cells at 1 uM after 48 hrs by sulforhodamine-B assay relative to control; format: functional; conditions: MCF7, 48 h, read-out: GI

Structure (SMILES)	inhibition of growth at 20 µM (HCT-116 [1]) [%]	inhibition of growth at 20 µM (A549 [2]) [%]	inhibition of growth at 20 µM (THP-1 [3]) [%]	IC50 [4] [µM]	inhibition of growth at 50 µM (THP-1 [5]) [%]	IC50 (A549 [6]) [µM]	inhibition of growth at 10 µM (THP-1 [7]) [%]	inhibition of growth at 50 µM (HCT-116 [8]) [%]	inhibition of growth at 10 µM (A549 [9]) [%]	IC50 (THP-1 [10]) [µM]	IC50 (MCF7 [11]) [µM]	IC50 (HCT-116 [12]) [µM]	inhibition at 48 h, 10 µM [13] [%]	inhibition at 48 h, 50 µM [14] [%]	inhibition of growth at 10 µM (MCF7 [15]) [%]	inhibition of growth at 50 µM (MCF7 [16]) [%]	inhibition of growth at 10 µM (HCT-116 [17]) [%]	inhibition of growth at 50 µM (A549 [18]) [%]	inhibition of growth at 1 µM (A549 [19]) [%]	inhibition of growth at 1 µM (MCF7 [20]) [%]
O=c1[nH]cc(F)c(=O)[nH]1 [FLUOROURACIL]	76	86	96	–	–	–	–	–	–	–	–	–	–	–	–	–	–	–	–	–
C[C@H]1[C@H](C)CC[C@]2(C(=O)OCc3cn(-c4ccc(Br)cc4)nn3)CC[C@]3(C)C(=CC[C@@H]4[C@@]5(C)CCC(=O)C(C)(C)[C@@H]5CC[C@]43C)[C@H]12	–	–	–	19	95	18	74	92	45	1	15	1.7	58	93	44	78	80	63	–	–
C[C@H]1[C@H](C)CC[C@]2(C(=O)OCc3cn(-c4ccc(F)cc4F)nn3)CC[C@]3(C)C(=CC[C@@H]4[C@@]5(C)CCC(=O)C(C)(C)[C@@H]5CC[C@]43C)[C@H]12	–	–	–	44	86	6.4	82	91	57	1.1	30	0.47	2	78	17	73	69	64	–	–
CO[C@@]12[C@H](COC(N)=O)C3=C(C(=O)C(C)=C(N)C3=O)N1C[C@@H]1N[C@@H]12 [MITOMYCIN]	–	–	–	–	–	–	–	–	–	–	–	–	–	–	–	–	–	–	70	82
Cc1ccc(-n2cc(COC(=O)[C@]34CC[C@@H](C)[C@H](C)[C@H]3C3=CC[C@@H]5[C@@]6(C)CCC(=O)C(C)(C)[C@@H]6CC[C@@]5(C)[C@]3(C)CC4)nn2)cc1C	–	–	–	10	94	0.5	82	99	74	0.9	5.5	< 0.1	68	85	69	99	91	93	–	–
